Laboratory results: article PMC6222672, “Pharmacokinetic and Metabolism Studies of 12-Riboside-Pseudoginsengenin DQ by UPLC-MS/MS and UPLC-QTOF-MS^E” (Molecules : A Journal of Synthetic Chemistry and Natural …, 2018)
Entries after “also recorded” stand apart in the source; their conditions may differ. Like-named read-outs stand apart in the source and are kept apart here.

Key:
[1] = Pharmacokinetic study of RPDQ in rats after intragastric and intravenous administration (UPLC-MS/MS of plasma); type: in vivo, Wistar rats; conditions: for AUC(0-t): read-out: AUC(0–60); for bioavailability: read-out: F (absolute bioavailability)
Experimental: The experiments on animals were approved by the Review Committee of Animal Care and Use of Jilin University. The study was conducted according to the ethical principles for animal use and care. Wistar rats (200 ± 20 g) were provided by Changchun Yisi Laboratory Animal Co. Ltd. (Changchun, China). All rats were housed in an environmentally controlled room (12 h light/dark cycle; temperature: 22 ± 2 °C; relative humidity: 55 ± 5%), and except during fast before experiments, the rats were fed with standard laboratory food and water ad libitum.
In the pharmacokinetic study, the rats were divided into different groups (n = 6, three males and three females): (1) RPDQ (6 mg/kg, i.g.), (2) RPDQ (12 mg/kg, i.g.), (3) RPDQ (24 mg/kg, i.g.), and (4) RPDQ (0.3 mg/kg, i.v.).
From the fossa orbitalis vein, the whole blood (150 μL) was collected at 0.5, 0.75, 1, 2, 3, 4, 6, 9, 10, 12, 18, 24, 48, and 60 h after oral administration, and 0.25, 0.5, 0.75, 1, 1.5, 2, 2.5, 3, 6, 12, and 24 h after intravenous administration. All the blood samples were anticoagulated with sodium heparin. After collection, the whole blood was centrifuged at 4000 rpm and 4 °C for 20 min to obtain plasma.
Plasma samples (being stored at −20 °C before analysis) were thawed and vortexed at room temperature. The mixture of each plasma sample (50 μL) and 20R-panaxadiol solution (100 ng/mL, 500 μL) was vortexed (2 min) and centrifuged (13,000 rpm, 4 °C, 10 min). The clear supernatant was obtained and transferred into vials, and 2 μL of it were then kept in autosampler at 4 °C and injected for analysis.
The analysis of pharmacokinetic was conducted on a Waters ACQUITY UPLC System coupled with a XEVO TQ-S mass spectrometer equipped with an electrospray ionization source (Waters, Milford, MA, USA). Separation was performed on a Waters BEH C18 UPLC column (2.1 × 50 mm, 1.7 μm) at 40 °C. The mobile phase, 0.1% formic aqueous solution (A) and 0.1% formic acid in acetonitrile (B) in proportions, was adjusted with a gradient elution programme (0 min, 40% B; 0~2 min, 40~100% B; 2~2.5 min, 100% B; 2.5~2.6 min, 100~40% B; 2.6~3.5 min, […]). The flow rate was kept constant at 0.3 mL/min. Chromatography of the RPDQ and IS was performed within 3.5 min. The injection volume was 2 μL. The multiple reaction monitoring (MRM) mode was performed in ESI^+. The main parameters were as follows: capillary voltage: 3000 V; source temperature: 150 °C; desolvation temperature: 300 °C; desolvation gas flow: 800 L/h; cone gas flow: 150 L/h; nebulizer gas flow: 7 bar; collision gas flow: 0.15 mL/min; cone voltage: 35 V and 28 V for RPDQ and IS, respectively; collision energy: 10 eV and 6 eV for RPDQ and IS, respectively. Masslynx V4.1 workstation (Waters, Milford, MA, USA) was used for data acquisition and processing.
Samples containing RPDQ above the upper limit of quantification were diluted and re-analyzed. The pharmacokinetics analysis in non-compartmental mode was conducted by Drug and Statistics (DAS) 3.0 pharmacokinetic software programme (Mathematical Pharmacology Professional Committee of China, Shanghai, China). The concentration versus the time curve was plotted. The time to reach the peak concentration (Tmax) and the maximum plasma concentration (Cmax) were obtained after oral administration. The results are shown as the mean ± standard deviation. The absolute bioavailability (F%) was calculated using the equation (AUCp.o. × Dosei.v.)/(AUCi.v. × Dosep.o.) × 100%.

[2] = tested on: S180 cells; assay: MTT cell viability test, S180 cells; type: cell-based; conditions: 1-200 μM, 44 h
Description: (§1) Antitumor activity test of RPDQ in vitro by using S180, SPC-A-1 and A549 cells
(§2) Since the startmaterial for the semi-synthesis of 12-Riboside-pseudoginsengenin DQ (RPDQ) was pseudoginsengenin DQ (PDQ), the antitumor activities of RPDQ […]
(§3) and PDQ were both tested.
(§4) The SPC-A-1 and S180 tumor cell lines were purchased from Wuhan Procell Life Science & Technology Co,.Ltd. A549 tumor cell lines were purchased from iCell Bioscience Inc (Shanghai) Biological Co., Ltd.
(§5) 2. Experimental procedure
(§6) S180 cells (1 × 10^5 cells/mL) were seeded into a 96-well plate. After 24 h, pretreated with various concentrations of RPDQ or PDQ (1-200 μM) for 44 h at 37℃, and the cells were treated with MTT for 4 h. The formazan crystal product in the cells were dissolved with acid isopropanol. The absorbance was measured at 570 nm with a […]
(§7) SPC-A-1/A549 cells(1×10^5 cells/mL) were seeded into a 96-well plate. After 24 h, pretreated with various concentrations of RPDQ or PDQ (1-200 μM) for 44 h at 37℃ , and the cells were treated with MTT for 4 h. […] The absorbance was measured at 490 nm with a […]
(§8) Cell viability was calculated by the following formula: Cell viability (%)= 1-{(ODcontrolgroup-ODtreatedgroup)/ODcontrol group×100%}.
(§9) All data were processed by statistical software SPSS 17.0. The data were expressed as Mean ± Standard Deviation. The differences between groups were analyzed by one-way analysis of variance. […]

[3] = tested on: SPC-A-1 cells; assay: MTT cell viability test, SPC-A-1 cells; type: cell-based; conditions: 1-200 μM, 44 h
Description: as §1, §2, §3, §4, §5, §6, §7, §8, §9

[4] = tested on: A549 cells; assay: MTT cell viability test, A549 cells; type: cell-based; conditions: 1-200 μM, 44 h
Description: as §1, §2, §3, §4, §5, §6, §7, §8, §9

[5] = both sexes, Wistar, rat, plasma, iv, rats, 0.3 mg/kg i.v.
[6] = both sexes, Wistar, rat, plasma, po, rats, 6 mg/kg intragastric
[7] = both sexes, Wistar, rat, plasma, po, rats, 12 mg/kg intragastric
[8] = both sexes, Wistar, rat, plasma, po, rats, 24 mg/kg intragastric

## CC(C)(O)[C@@H]1CC[C@@](C)([C@H]2CC[C@]3(C)[C@@H]2[C@H](O[C@@H]2O[C@H](CO)[C@@H](O)[C@H]2O)C[C@@H]2[C@@]4(C)CC[C@H](O)C(C)(C)[C@@H]4CC[C@]23C)O1 [RPDQ, 20S, 24S-12-O-β-D-ribofuranosyl-dammar-20, 24-epoxy-3β, 12β, 25-triol]
[1]; [5]
  AUC(0-inf): 8330 ± 270 ng·h/mL
  Tmax: 0.25 h
  half-life: 2.94 ± 0.51 h
  AUC(0-t): 8300 ± 258 ng·h/mL
[1]; both sexes, Wistar, rat, plasma, iv, rats, 0.3 mg/kg i.v., read-out: CLz (converted)
  clearance: 0.667 mL/min/kg
[1]; both sexes, Wistar, rat, plasma, iv, rats, 0.3 mg/kg i.v., read-out: Vz
  Vd: 11.52 ± 0.02 L/kg
[1]; [6]
  AUC(0-inf): 9570 ± 546 ng·h/mL
  Tmax: 7 ± 1.55 h
  half-life: 12.6 ± 1.28 h
  AUC(0-t): 9210 ± 608 ng·h/mL
[1]; both sexes, Wistar, rat, plasma, po, rats, 6 mg/kg intragastric vs 0.3 mg/kg i.v.
  bioavailability: 5.55%
[1]; [7]
  AUC(0-inf): 17700 ng·h/mL
  Tmax: 7.5 ± 1.63 h
  half-life: 12.8 ± 0.56 h
  AUC(0-t): 17100 ng·h/mL
[1]; both sexes, Wistar, rat, plasma, po, rats, 12 mg/kg intragastric vs 0.3 mg/kg i.v.
  bioavailability: 5.15%
[1]; [8]
  AUC(0-inf): 42600 ng·h/mL
  Tmax: 7 ± 1.55 h
  half-life: 13.7 ± 1.11 h
  AUC(0-t): 40400 ng·h/mL
[1]; both sexes, Wistar, rat, plasma, po, rats, 24 mg/kg intragastric vs 0.3 mg/kg i.v.
  bioavailability: 6.08%
[1]; both sexes, Wistar, rat plasma sample collected at 6 h after an oral dose of 12 mg/kg
  concentration at 6 h: 1000 ng/mL
[1]; rats, 6 mg/kg intragastric
  CLz: 10.5 ± 0.6 mL/min/kg
  Vz: 11.45 ± 1.55 L/kg
[1]; rats, 12 mg/kg intragastric
  CLz: 11.3 ± 0.367 mL/min/kg
  Vz: 12.53 ± 0.59 L/kg
[1]; rats, 24 mg/kg intragastric
  CLz: 9.5 ± 0.733 mL/min/kg
  Vz: 11.28 ± 1.69 L/kg
[1]; rats, after gastrointestinal administration
  time at which RPDQ could still be quantified in plasma: 60 h
[2]
  anticancer / anti-proliferation effect: good anti-proliferation effects; also recorded: significant anticancer activity
[3]
  anticancer / anti-proliferation effect: good anti-proliferation effects; also recorded: significant anticancer activity
[4]
  anticancer / anti-proliferation effect: good anti-proliferation effects; also recorded: significant anticancer activity
